Data on 18 compounds can be found in patent EP0702683B1, “06-SUBSTITUTED GUANINE DERIVATIVES, A PROCESS FOR THEIR PREPARATION AND THEIR USE IN TREATING TUMOUR CELLS” (Cancer Research Technology Limited, priority 1993, dated 1994).

pIC50: −log10 of the molar value. Read-outs that look alike come from different tables or passages of the source.

The target in data set [1] is T1, ATase (Homo sapiens, UniProt P16455).
T1 sequence (P16455 1-207): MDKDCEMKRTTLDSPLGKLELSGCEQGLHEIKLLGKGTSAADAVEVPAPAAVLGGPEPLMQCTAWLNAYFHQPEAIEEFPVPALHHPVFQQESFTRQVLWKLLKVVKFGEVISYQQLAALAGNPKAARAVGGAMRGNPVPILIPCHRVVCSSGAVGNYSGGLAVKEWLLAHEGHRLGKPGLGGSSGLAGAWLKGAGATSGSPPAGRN
The experiment in a line: In vitro ATase inactivation assay with purified recombinant human ATase. Format: biochemical. On the set-up: made in house. The following applies: for ability to inactivate recombinant human ATase: up to the highest concentration used, in words. On the procedure:
The cDNA cloning and overexpression of the human ATase has been reported previously^23. Purification of the recombinant proteins was achieved either by affinity chromatography through a DNA-cellulose column as described by Wilkinson et al.,^25, 26, or by DEAE-cellulose ion-exchange chromatography. For the latter, the ATase protein was partially purified by ammonium sulphate precipitation (30 - 60%) and dialysed against 10 mM Tris-HCl pH 7.5, 1 mM DTT, 2 mM EDTA, 10% glycerol, before loading on a DEAF-cellulose column. The ATase was then eluted with a 0-0.1 M NaCl gradient.
Compounds to be tested were dissolved in DMSO to a final concentration of 10 mM and diluted just before use in buffer I containing 1 mg/ml bovine serum albumin (IBSA). Recombinant ATase was diluted in IBSA and titrated in order that the reaction be conducted under ATase, and not substrate, limiting conditions. In each assay, fixed amounts of ATase (60-75 fmol) were incubated with varying amounts of 0^6-benzylguanine, or test compound in a total volume of 200 µl of IBSA containing 10 µg of calf thymus DNA at 37°C for 1 hour. The [^3H]-methylated-DNA substrate (100 µl containing 6.7 µg of DNA and 100 fmol of 0^6-methylguanine) was added and incubation continued at 37° for 1 hour, until the reaction was completed. Following acid hydrolysis of the DNA as previously described^21 the [^3H]-methylated protein was recovered and quantitated by liquid scintillation counting. Samples were typically assayed in duplicate and experiments repeated several times. I50 is the concentration of inactivator required to produce a 50% reduction in ATase activity.

A short description of data set [2]: Stability of inactivators at 37°C (spectrophotometric half life). Format: physicochemical. On the procedure:
Inactivators (10mM in DMSO) were diluted to 0.1mM in prewarmed degassed buffer I (1mM EDTA, 50mM Tris pH 8.3) or PBS (pH 7-7.2). […] Samples were immediately transferred to a CARY13 spectrophotometer (cuvette block held at 37°C) and scanned at an appropriate wavelength (according to the spectral properties of the compound) at 3-10 minute intervals for up to 80 hours. The results were expressed as percentage absorbance change versus time and T1/2 values (half life) extrapolated from this.

Data set [3] deals with A375M cells. The experiment in a line: Sensitization of A375M cells to BCNU (MTT assay). It is filed as cell-based, human. The note with it: for A375M sensitization (D50.^C/D50.^I) 0.5uM: inactivator 0.5uM 2 hours before; for A375M sensitization (D50.^C/D50.^I) 5.0uM: inactivator 5.0uM 2 hours before. Here is the method: Sensitization of A375M cells to the cytotoxic effects of BCNU was analysed by MTT assay ^24 differing from the XTT assay described above as follows. […] After 6 days MTT solution (4mg/ml) was added and cells incubated for 3 hours at 37°C. Medium was aspirated and the resulting purple formazan crystals were solubilised in DMSO (120μl) and cell viability was quantified by measuring absorption at 540nm using a microtitre plate reader.
(In general: Formazan colour is commonly taken as a measure of viable cells.)

[4] abbreviates: 0.1mM in PBS (pH 7-7.2), read-out: T1/2(h) in PBS (converted).
Setting [5] is: 0.1mM in buffer I (1mM EDTA, 50mM Tris pH 8.3), read-out: T1/2(h) in Buffer I (converted).

Regarding `CC(Oc1nc(N)nc2[nH]cnc12)c1ccccc1` (racemic) [B.4214, DL-O^6-(α -methylbenzyl)guanine, reference compound], in data set [1], the pIC50 is below 4.22 and the “ability to inactivate recombinant human ATase” value is “did not inactivate ATase up to the highest concentration used”. For `CC(Oc1nc(N)nc2[nH]cnc12)c1cccs1` (racemic) [B.4217, DL-O^6-(α -methylthenyl)guanine] the same measures were below 3.30 and “did not inactivate ATase up to the highest concentration used”. Turning to `Nc1nc(OCc2ccccn2)c2nc[nH]c2n1` [B.4210, O^6-(2-picolyl)guanine], in data set [2] (setting [4]), the half-life at 100 µM was above 16 h. Also, the “A375M sensitization (D50.^C/D50.^I) 1.0uM” value in data set [3] (inactivator 1.0uM 2 hours before) is 1.5. Consider `Nc1nc(OCc2cccnc2)c2[nH]cnc2n1` [B.4211, O^6-(3-picolyl)guanine], for which the half-life at 100 µM in data set [2] (setting [4]) is above 16 h. Also, the pIC50 in data set [1] was 6.37. Turning to `Cc1ccccc1COc1nc(N)nc2[nH]cnc12` [B.4218, O^6-(2-methylbenzyl)guanine, reference compound], the pIC50 in data set [1] is 4.24. As for `Nc1nc(OCc2cccc3ccccc23)c2nc[nH]c2n1` [B.4265, O^6-(1-naphthylmethyl)guanine], the half-life at 100 µM in data set [2] (setting [5]) is 60 h. Moreover, the pIC50 in data set [1] is 4.02. As to `Nc1nc(OCc2cc3ccccc3o2)c2nc[nH]c2n1` [B.4266, O^6-(2-benzofuranylmethyl)guanine], in data set [2] (setting [4]), the half-life at 100 µM was above 16 h. In data set [3], the “A375M sensitization (D50.^C/D50.^I) 0.5uM” value came to 6.3 and the “A375M sensitization (D50.^C/D50.^I) 5.0uM” value came to 6.3. The pIC50 in data set [1] was 7.46. In the case of `Nc1nc(OCc2ccc3c(c2)OCO3)c2ncn([C@@H]3O[C@H](CO)[C@@H](O)[C@H]3O)c2n1` [B.4268, O^6-piperonylguanosine], the half-life at 100 µM in data set [2] (setting [4]) is 8 h. In addition, the pIC50 in data set [1] is 6.12. For `Nc1nc(OCc2cnc3c(c2)OCO3)c2nc[nH]c2n1` [B.4271, O^6-(5-azapiperonyl)guanine], in data set [2] (setting [4]), the half-life at 100 µM was above 16 h. Besides, the pIC50 in data set [1] was 6.64. Consider `N#Cc1ccc(COc2nc(N)nc3[nH]cnc23)o1` [B.4273, O^6-(5-cyanofurfuryl)guanine], for which the pIC50 in data set [1] is 8.22. Consider `Nc1nc(OCc2cnco2)c2nc[nH]c2n1` [B.4274, O^6-(5-oxazolylmethyl)guanine], for which the pIC50 in data set [1] was 6.47. Still for that read-out and setting: then `Nc1nc(OCc2cncs2)c2nc[nH]c2n1` [B.4275, O^6-(5-thiazolylmethyl)guanine], with 7.48; and `Nc1nc(OCc2cc3ccccc3s2)c2ncn([C@@H]3O[C@H](CO)[C@@H](O)[C@H]3O)c2n1` [B.4276, O^6-(2-benzo[b]thienylmethyl)guanosine], with 6.46. The same measure, in the same setting: the same measure for `Nc1nc(OCc2ccncc2)c2nc[nH]c2n1` [B.4277, O^6-(4-picolyl)guanine]: 6.89. Still for that read-out and setting: then `Cn1cc([N+](=O)[O-])cc1COc1nc(N)nc2[nH]cnc12` [B.4278, O^6(1-methyl-4-nitropyrrol-2-ylmethyl) guanine], with 6.26; and `Nc1nc(OCc2cccs2)c2ncn([C@@H]3O[C@H](CO)[C@@H](O)[C@H]3O)c2n1` [B.4279, O^6-thenylguanosine], with 6.05. `C=CCOc1nc(N)nc2[nH]cnc12` [O^6-allylguanine, reference compound]: the half-life at 100 µM in data set [2] (setting [5]) was above 64 h. For the same compound, in data set [3], the “A375M sensitization (D50.^C/D50.^I) 0.5uM” value came out at 1.3 and the “A375M sensitization (D50.^C/D50.^I) 5.0uM” value is 1.9. Further, the pIC50 in data set [1] is 4.66.

Take “O^6-(2-methoxybenzyl)guanine [B.4231, reference compound]”: the pIC50 in data set [1] (recombinant human ATase incubated with inactivator 1 hour at 37°C before substrate, read-out: I50) is 4.22.
